Assay results reported in ChEMBL document CHEMBL1909046, “DrugMatrix in vitro pharmacology data”.

How the values were obtained:
[1] = target: Beta-2 adrenergic receptor (Homo sapiens, UniProt P07550); assay: DRUGMATRIX: Adrenergic beta2 radioligand binding (ligand: [3H] CGP-12177); type: cell membranes, Membrane; conditions: cho; Not Active = under 50% inhibition at 10 µM
[2] = target: T1, 5-hydroxytryptamine receptor 2C (Homo sapiens, UniProt P28335); assay: DRUGMATRIX: Serotonin (5-Hydroxytryptamine) 5-HT2C radioligand binding (ligand: [3H] Mesulergine); type: cell membranes, CHO-K1, Membrane; conditions: cho-k1; Not Active = under 50% inhibition at 10 µM
T1 sequence (P28335 whole entry): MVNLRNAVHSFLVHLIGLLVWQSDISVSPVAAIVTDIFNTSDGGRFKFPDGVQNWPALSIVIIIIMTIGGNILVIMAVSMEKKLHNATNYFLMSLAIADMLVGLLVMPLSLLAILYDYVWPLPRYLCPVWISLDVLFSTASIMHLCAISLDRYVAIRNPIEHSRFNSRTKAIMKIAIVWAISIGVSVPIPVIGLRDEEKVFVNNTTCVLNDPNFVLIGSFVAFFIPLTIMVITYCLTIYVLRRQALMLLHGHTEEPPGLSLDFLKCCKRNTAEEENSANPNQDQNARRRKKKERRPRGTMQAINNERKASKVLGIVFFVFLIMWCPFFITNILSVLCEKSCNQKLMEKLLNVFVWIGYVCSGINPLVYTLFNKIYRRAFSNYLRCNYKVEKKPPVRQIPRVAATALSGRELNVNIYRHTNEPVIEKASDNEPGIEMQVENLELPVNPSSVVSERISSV

Substance-K receptor = target: T2, Substance-K receptor (Homo sapiens, UniProt P21452); type: cell membranes, CHO, Membrane; conditions: cho; also: in other assays of this panel Not Active means under 50% inhibition at 10 µM
T2 sequence (P21452 whole entry): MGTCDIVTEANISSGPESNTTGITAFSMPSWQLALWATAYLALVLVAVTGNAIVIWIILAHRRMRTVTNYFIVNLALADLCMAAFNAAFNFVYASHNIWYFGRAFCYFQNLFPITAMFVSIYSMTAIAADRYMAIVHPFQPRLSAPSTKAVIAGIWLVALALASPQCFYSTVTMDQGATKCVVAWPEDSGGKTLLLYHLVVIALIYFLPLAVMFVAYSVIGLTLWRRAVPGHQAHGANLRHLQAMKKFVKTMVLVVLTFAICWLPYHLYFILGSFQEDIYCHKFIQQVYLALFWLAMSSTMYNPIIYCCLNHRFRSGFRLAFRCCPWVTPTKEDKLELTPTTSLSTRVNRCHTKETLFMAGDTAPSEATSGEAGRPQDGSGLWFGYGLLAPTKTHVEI

Melanocortin receptor 5 = Melanocortin receptor 5 (Homo sapiens, UniProt P33032); type: cell membranes, HEK293, Membrane; conditions: hek293; also: in other assays of this panel Not Active means under 50% inhibition at 10 µM
Cytochrome P450 1A2 = target: T3, Cytochrome P450 1A2 (Homo sapiens, UniProt P05177); conditions: bti-tn-5b1-4; also: in other assays of this panel Not Active means under 50% inhibition at 10 µM
T3 sequence (P05177 whole entry): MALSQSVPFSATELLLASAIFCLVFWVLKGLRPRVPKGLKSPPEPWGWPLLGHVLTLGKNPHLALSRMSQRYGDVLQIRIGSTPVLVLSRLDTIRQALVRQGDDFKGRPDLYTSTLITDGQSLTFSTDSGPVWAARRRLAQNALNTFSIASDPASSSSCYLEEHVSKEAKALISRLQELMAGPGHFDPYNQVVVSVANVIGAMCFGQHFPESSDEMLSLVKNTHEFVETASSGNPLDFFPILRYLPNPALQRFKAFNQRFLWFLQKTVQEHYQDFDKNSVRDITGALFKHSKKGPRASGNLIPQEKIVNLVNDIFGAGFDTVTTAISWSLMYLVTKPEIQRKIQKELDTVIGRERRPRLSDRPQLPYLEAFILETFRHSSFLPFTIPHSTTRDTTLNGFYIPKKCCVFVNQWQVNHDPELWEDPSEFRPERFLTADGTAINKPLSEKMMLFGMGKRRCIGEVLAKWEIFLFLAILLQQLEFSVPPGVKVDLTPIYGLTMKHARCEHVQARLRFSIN

Interstitial collagenase = target: T4, Interstitial collagenase (Homo sapiens, UniProt P03956); type: tissue-based, Rheumatoid synovial fibroblasts;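 also: MMP-1 enzyme inhibition assay using a peptide substrate; in other assays of this panel Not Active means under 50% inhibition at 10 µM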
T4 sequence (P03956 whole entry): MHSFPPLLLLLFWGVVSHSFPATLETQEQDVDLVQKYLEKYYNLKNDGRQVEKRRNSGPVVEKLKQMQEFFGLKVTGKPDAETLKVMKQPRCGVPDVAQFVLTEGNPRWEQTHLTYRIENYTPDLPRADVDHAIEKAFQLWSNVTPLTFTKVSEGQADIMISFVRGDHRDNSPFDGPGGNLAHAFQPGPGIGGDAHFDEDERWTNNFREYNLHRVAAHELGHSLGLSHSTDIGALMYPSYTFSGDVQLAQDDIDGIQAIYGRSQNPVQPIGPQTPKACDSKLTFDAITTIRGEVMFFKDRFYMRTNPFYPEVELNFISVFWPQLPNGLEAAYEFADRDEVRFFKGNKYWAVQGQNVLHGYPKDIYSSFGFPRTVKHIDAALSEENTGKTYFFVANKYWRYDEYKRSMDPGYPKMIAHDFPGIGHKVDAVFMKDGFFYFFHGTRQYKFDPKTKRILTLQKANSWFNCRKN

Chain of Beta-2 adrenergic receptor (P07550 whole entry): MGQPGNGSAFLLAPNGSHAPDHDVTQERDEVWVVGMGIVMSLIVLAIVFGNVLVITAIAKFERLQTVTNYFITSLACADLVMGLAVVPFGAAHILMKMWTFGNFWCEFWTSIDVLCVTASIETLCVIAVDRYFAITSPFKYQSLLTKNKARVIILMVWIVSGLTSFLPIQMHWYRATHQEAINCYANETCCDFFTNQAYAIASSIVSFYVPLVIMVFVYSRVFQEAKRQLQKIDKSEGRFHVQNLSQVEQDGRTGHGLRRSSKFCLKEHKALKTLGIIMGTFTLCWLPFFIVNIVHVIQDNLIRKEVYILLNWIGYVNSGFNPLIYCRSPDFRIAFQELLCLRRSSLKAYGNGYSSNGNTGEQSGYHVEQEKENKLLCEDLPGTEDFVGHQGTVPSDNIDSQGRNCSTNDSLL
Chain of Melanocortin receptor 5 (P33032 whole entry): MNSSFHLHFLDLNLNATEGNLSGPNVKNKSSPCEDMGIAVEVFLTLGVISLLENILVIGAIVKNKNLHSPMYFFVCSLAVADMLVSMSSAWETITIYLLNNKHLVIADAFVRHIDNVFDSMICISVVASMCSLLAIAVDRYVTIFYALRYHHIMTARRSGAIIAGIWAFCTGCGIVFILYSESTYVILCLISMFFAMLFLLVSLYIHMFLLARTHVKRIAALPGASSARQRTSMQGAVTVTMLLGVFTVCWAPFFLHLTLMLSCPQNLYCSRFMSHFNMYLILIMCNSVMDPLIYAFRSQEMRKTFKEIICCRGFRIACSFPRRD

CC(=O)OCC(=O)[C@@]1(OC(C)=O)[C@@H](C)C[C@H]2[C@@H]3C[C@H](F)C4=CC(=O)C=C[C@]4(C)[C@@]3(F)[C@@H](O)C[C@@]21C [DIFLORASONE DIACETATE]
Not Active: IC50 [1] | IC50 [2] | IC50 (Substance-K receptor) | IC50 (Melanocortin receptor 5) | IC50 (Cytochrome P450 1A2) | Ki (Cytochrome P450 1A2) | IC50 (Interstitial collagenase)

COc1ccc([C@@H]2Sc3ccccc3N(CCN(C)C)C(=O)[C@@H]2OC(C)=O)cc1 [DILTIAZEM]
Not Active: IC50 [1] | IC50 [2] | IC50 (Substance-K receptor) | IC50 (Melanocortin receptor 5) | IC50 (Cytochrome P450 1A2) | Ki (Cytochrome P450 1A2) | IC50 (Interstitial collagenase)

CCc1ccc(C(=O)C(C)CN2CCCCC2)cc1 (stereo not given) [EPERISONE]
Not Active: IC50 [1] | IC50 [2] | IC50 (Substance-K receptor) | IC50 (Melanocortin receptor 5) | IC50 (Cytochrome P450 1A2) | Ki (Cytochrome P450 1A2) | IC50 (Interstitial collagenase)

C=C1CC[C@H](O)C/C1=C/C=C1\CCC[C@]2(C)[C@@H]([C@H](C)/C=C/[C@H](C)C(C)C)CC[C@@H]12 [ERGOCALCIFEROL]
Not Active: IC50 [1] | IC50 [2] | IC50 (Substance-K receptor) | IC50 (Melanocortin receptor 5) | IC50 (Cytochrome P450 1A2) | Ki (Cytochrome P450 1A2) | IC50 (Interstitial collagenase)

CCc1cccc2c3c([nH]c12)C(CC)(CC(=O)O)OCC3 (stereo not given) [ETODOLAC]
Not Active: IC50 [1] | IC50 [2] | IC50 (Substance-K receptor) | IC50 (Melanocortin receptor 5) | IC50 (Cytochrome P450 1A2) | Ki (Cytochrome P450 1A2) | IC50 (Interstitial collagenase)

Cc1c(-c2ccccc2)oc2c(C(=O)OCCN3CCCCC3)cccc2c1=O [FLAVOXATE]
Not Active: IC50 [1] | IC50 [2] | IC50 (Substance-K receptor) | IC50 (Melanocortin receptor 5) | IC50 (Cytochrome P450 1A2) | Ki (Cytochrome P450 1A2) | IC50 (Interstitial collagenase)

Nc1nc(=O)[nH]cc1F [FLUCYTOSINE]
Not Active: IC50 [1] | IC50 [2] | IC50 (Substance-K receptor) | IC50 (Melanocortin receptor 5) | IC50 (Cytochrome P450 1A2) | Ki (Cytochrome P450 1A2) | IC50 (Interstitial collagenase)

O=C1OC2(c3ccc(O)cc3Oc3cc(O)ccc32)c2ccccc21 [FLUORESCEIN]
Not Active: IC50 [1] | IC50 [2] | IC50 (Substance-K receptor) | IC50 (Melanocortin receptor 5) | IC50 (Cytochrome P450 1A2) | Ki (Cytochrome P450 1A2) | IC50 (Interstitial collagenase)

CC(=O)[C@@]1(O)CC[C@H]2[C@@H]3C[C@H](C)C4=CC(=O)C=C[C@]4(C)[C@@]3(F)[C@@H](O)C[C@@]21C [FLUOROMETHOLONE]
Not Active: IC50 [1] | IC50 [2] | IC50 (Substance-K receptor) | IC50 (Melanocortin receptor 5) | IC50 (Cytochrome P450 1A2) | Ki (Cytochrome P450 1A2) | IC50 (Interstitial collagenase)

O=c1[nH]cc(F)c(=O)[nH]1 [FLUOROURACIL]
Not Active: IC50 [1] | IC50 [2] | IC50 (Substance-K receptor) | IC50 (Melanocortin receptor 5) | IC50 (Cytochrome P450 1A2) | Ki (Cytochrome P450 1A2) | IC50 (Interstitial collagenase)

CC(C)n1c(/C=C/C(O)CC(O)CC(=O)O)c(-c2ccc(F)cc2)c2ccccc21 (stereo not given) [FLUVASTATIN]
Not Active: IC50 [1] | IC50 [2] | IC50 (Substance-K receptor) | IC50 (Melanocortin receptor 5) | IC50 (Cytochrome P450 1A2) | Ki (Cytochrome P450 1A2) | IC50 (Interstitial collagenase)

NCC1(CC(=O)O)CCCCC1 [GABAPENTIN]
Not Active: IC50 [1] | IC50 [2] | IC50 (Substance-K receptor) | IC50 (Melanocortin receptor 5) | IC50 (Cytochrome P450 1A2) | Ki (Cytochrome P450 1A2) | IC50 (Interstitial collagenase)

CC[N+](CC)(CC)CCOc1cccc(OCC[N+](CC)(CC)CC)c1OCC[N+](CC)(CC)CC.[I-].[I-].[I-] [GALLAMINE TRIETHIODIDE]
Not Active: IC50 [1] | IC50 [2] | IC50 (Substance-K receptor) | IC50 (Melanocortin receptor 5) | IC50 (Cytochrome P450 1A2) | Ki (Cytochrome P450 1A2) | IC50 (Interstitial collagenase)

Nc1nc2c(ncn2COC(CO)CO)c(=O)[nH]1 [GANCICLOVIR]
Not Active: IC50 [1] | IC50 [2] | IC50 (Substance-K receptor) | IC50 (Melanocortin receptor 5) | IC50 (Cytochrome P450 1A2) | Ki (Cytochrome P450 1A2) | IC50 (Interstitial collagenase)

COc1c(N2CCNC(C)C2)c(F)cc2c(=O)c(C(=O)O)cn(C3CC3)c12 (stereo not given) [GATIFLOXACIN]
Not Active: IC50 [1] | IC50 [2] | IC50 (Substance-K receptor) | IC50 (Melanocortin receptor 5) | IC50 (Cytochrome P450 1A2) | Ki (Cytochrome P450 1A2) | IC50 (Interstitial collagenase)

CC1(C)[C@@H](O[C@H]2O[C@H](C(=O)O)[C@@H](O)[C@H](O)[C@H]2O[C@@H]2O[C@H](C(=O)O)[C@@H](O)[C@H](O)[C@H]2O)CC[C@]2(C)[C@H]3C(=O)C=C4[C@@H]5C[C@@](C)(C(=O)O)CC[C@]5(C)CC[C@@]4(C)[C@]3(C)CC[C@@H]12 [GLYCYRRHIZIN]
Not Active: IC50 [1] | IC50 [2] | IC50 (Substance-K receptor) | IC50 (Melanocortin receptor 5) | IC50 (Cytochrome P450 1A2) | Ki (Cytochrome P450 1A2) | IC50 (Interstitial collagenase)

COC1=CC(=O)C[C@@H](C)[C@]12Oc1c(Cl)c(OC)cc(OC)c1C2=O [GRISEOFULVIN]
Not Active: IC50 [1] | IC50 [2] | IC50 (Substance-K receptor) | IC50 (Melanocortin receptor 5) | IC50 (Cytochrome P450 1A2) | Ki (Cytochrome P450 1A2) | IC50 (Interstitial collagenase)

C/C=C1\[C@H]2C=C(C)C[C@]1(N)c1ccc(=O)[nH]c1C2 [HUPERZINE A]
Not Active: IC50 [1] | IC50 [2] | IC50 (Substance-K receptor) | IC50 (Melanocortin receptor 5) | IC50 (Cytochrome P450 1A2) | Ki (Cytochrome P450 1A2) | IC50 (Interstitial collagenase)

CN1CCC[C@H]1c1cccnc1 [NICOTINE]
Not Active: IC50 [1] | IC50 [2] | IC50 (Substance-K receptor) | IC50 (Melanocortin receptor 5) | IC50 (Cytochrome P450 1A2) | Ki (Cytochrome P450 1A2) | IC50 (Interstitial collagenase)

O=C1CN=C(c2ccccc2)c2cc([N+](=O)[O-])ccc2N1 [NITRAZEPAM]
Not Active: IC50 [1] | IC50 [2] | IC50 (Substance-K receptor) | IC50 (Melanocortin receptor 5) | IC50 (Cytochrome P450 1A2) | Ki (Cytochrome P450 1A2) | IC50 (Interstitial collagenase)
